Columns and labels:
Assay type in all cases: in vivo, NCR nude mice
SK-NEP-1 xenografts = assay: Tumor 2-D cross-sectional area by ultrasound, SK-NEP-1 xenografts
Method: (§1) To evaluate vascular response (blood volume, perfusion, and molecular expression), two human cancer cell lines (SK-NEP and NGP) were implanted in nude mice and allowed to develop for five weeks. High-frequency ultrasound imaging of the tumors was performed at 40 MHz using a Visualsonics Vevo 770 during bolus tail-vein injections of size-selected microbubble suspensions. […] The bolus was […] and the concentration was 5×10^8 microbubbles/mL. The change in intensity of the ultrasound signal was used to determine the relative blood volume. Targeted microbubbles bearing cyclic RGD-peptides (or cyclic RAD-peptides for the control microbubbles) were used to measure the level of active angiogenesis. The mice were imaged at 0, 1, 3, and 5 days. Immediately after the imaging sessions on days 0 and 3, 0.2 cc of BV (2.5 mg/mL) was administered to the mice. After day 5, the mice were euthanized, and their tumors excised for ex vivo analysis.
The identity of the neuroblastoma cell lines NGP and SK-NEP-1 were verified by STR profiling. […] The resulting xenografts were monitored for growth using bioluminescence. […] 40-μm sections were cut using a vibratome, and digital images subjected to computer-assisted quantitative analysis of tumor vessel architecture.
Xenografts formed in the kidney of NCR nude mice with the human Ewing family tumor cell line SK-NEP-1 are highly sensitive to VEGF blockade therapy, while human neuroblastoma NGP cell lines are much less responsive to VEGF blockade therapy. The intrarenally implanted xenograft tumors were monitored for growth and randomly assigned to biweekly injections of anti-VEGF antibody BV or vehicle. […] To confirm the characterization of responsiveness, 2-D tumor area was measured by ultrasonography, the results of which are shown in FIG. 11.
The tumor 2-D cross-sectional area was determined from the ultrasound images using Visualsonics software. Area measurements of the tumor were calculated from the ultrasound images using a ROI that encompassed the hypoechoic region of the kidney (tumor tissue). […]

NGP tumors [1] = assay: Ultrasound molecular imaging with RGD-microbubbles (relative targeted microbubble adhesion, αvβ3 integrin), NGP tumors; details: exponential decay model, days 0-5
Method: as §1, with “The mice were imaged at 0, 1, 3, and 5 days. Immediately after the imaging sessions on days 0 and 3, 0.2 cc of BV (2.5 mg/mL) was administered to the mice. After day 5, the mice were euthanized, and their tumors excised for ex vivo analysis.” left out
The identity of the neuroblastoma cell lines NGP and SK-NEP-1 were verified by STR profiling. […] The resulting xenografts were monitored for growth using bioluminescence. […] 40-μm sections were cut using a vibratome, and digital images subjected to computer-assisted quantitative analysis of tumor vessel architecture. […]
For molecular ultrasound imaging, a series of lower frequency pulses was applied to destroy microbubbles in the field of view 10 minutes after microbubble injection. […] The relative targeted microbubble adhesion (rtma) was measured as the difference in the linearized grayscale pixel intensities within the ROI for targeted RGD-microbubbles, minus that for RAD-microbubbles. […]

SK-NEP-1 tumors [2] = assay: Ultrasound molecular imaging with RGD-microbubbles (relative targeted microbubble adhesion, αvβ3 integrin), SK-NEP-1 tumors
Method: (§2) The identity of the neuroblastoma cell lines NGP and SK-NEP-1 were verified by STR profiling. The cell lines were stably transfected with FUW-Luciferase plasmid and were selected and maintained in 1 mg/ml neomycin. 1×10^6 cells were injected intrarenally into 4-6 week old NCR female nude mice. The resulting xenografts were monitored for growth using bioluminescence. At a threshold corresponding to 1-2 g, tumors were randomized to control or treatment groups (cohort size 5-8 mice per modality and treatment groups). […] Animals were killed by CO2 inhalation at indicated time points (at day 5 after serial imaging studies, and at days 0, 1, 3, and 5 for control and lectin perfusion analyses). At euthanasia, mice were injected with fluorescein-labeled Lycopersicon esculentum lectin (100 μg/100 μl PBS). Vasculature was fixed by infusing 1% paraformaldehyde. 40-μm sections were cut using a vibratome, and digital images subjected to computer-assisted quantitative analysis of tumor vessel architecture.

NGP tumors [3] = assay: Fluorescein-labeled lectin perfusion analysis of tumor vasculature, NGP tumors; details: BV-treated NGP tumors
Method: (§3) The identity of the neuroblastoma cell lines NGP and SK-NEP-1 were verified by STR profiling. The cell lines were stably transfected with FUW-Luciferase plasmid and were selected and maintained in 1 mg/ml neomycin. 1×10^6 cells were injected intrarenally into 4-6 week old NCR female nude mice. The resulting xenografts were monitored for growth using bioluminescence. At a threshold corresponding to 1-2 g, tumors were randomized to control or treatment groups (cohort size 5-8 mice per modality and treatment groups). BV (0.5 mg) was administered immediately after imaging on days 0 and 3. Animals were killed by CO2 inhalation at indicated time points (at day 5 after serial imaging studies, and at days 0, 1, 3, and 5 for control and lectin perfusion analyses). […] 40-μm sections were cut using a vibratome, and digital images subjected to computer-assisted quantitative analysis of tumor vessel architecture.
Quantified changes in lectin perfusion studies of tumor vasculature were consistent with changes detected by CEUS. […]
Computer-assisted image analysis was used to examine changes in specific vessel features. If vascular area is calculated from total pixels, large-diameter vessels contributed disproportionately to MVD as compared to fine capillaries. To more closely estimate numbers of vessels, total length can be calculated by skeletonizing images and then scoring these by computer. […]

NGP xenografts = assay: Tumor 2-D cross-sectional area by ultrasound, NGP xenografts; details: NGP tumors, BV vs. control, 5 days
Method: as §2

SK-NEP-1 tumors [4] = assay: CEUS perfusion imaging (relative microbubble perfusion), SK-NEP-1 tumors; details: SK-NEP-1 cohorts, days 0 to 5, linear mixed-effects model
Method: as §3, with “architecture. […]” for “architecture.”
Mice were anesthetized and placed on a physiological monitoring platform, and their tail veins were catheterized for injections using a 27-gauge, ½-inch butterfly catheter. […] Contrast enhancement was detected using background subtraction from reference videos acquired before the microbubble injection. […] Relative microbubble perfusion (rmp) was defined as the maximum signal enhancement and determined by regression of a monoexponential function to the time-intensity curve during microbubble uptake. […]

NGP tumors [5] = assay: CEUS perfusion imaging (relative microbubble perfusion), NGP tumors; details: for increase in mean rmp: BV-treated NGP tumors
Method: The identity of the neuroblastoma cell lines NGP and SK-NEP-1 were verified by STR profiling. The cell lines were stably transfected with FUW-Luciferase plasmid and were selected and maintained in 1 mg/ml neomycin. 1×10^6 cells were injected intrarenally into 4-6 week old NCR female nude mice. The resulting xenografts were monitored for growth using bioluminescence. At a threshold corresponding to 1-2 g, tumors were randomized to control or treatment groups (cohort size 5-8 mice per modality and treatment groups). BV (0.5 mg) was administered immediately after imaging on days 0 and 3. Animals were killed by CO2 inhalation at indicated time points (at day 5 after serial imaging studies, and at days 0, 1, 3, and 5 for control and lectin perfusion analyses). At euthanasia, mice were injected with fluorescein-labeled Lycopersicon esculentum lectin (100 μg/100 μl PBS). Vasculature was fixed by infusing 1% paraformaldehyde. 40-μm sections were cut using a vibratome, and digital images subjected to computer-assisted quantitative analysis of tumor vessel architecture.
Size-selected microbubbles described above were used for perfusion and molecular imaging. Lipid-coated, perfluorobutane-filled microbubbles were produced by mechanical agitation. For targeting, a maleimide group was included on the distal end of the polyethylene glycol group on the lipopolymer used to coat the microbubbles. Residual lipid was removed and 4.5-μm median diameter microbubbles were isolated by centrifugation. Targeted microbubbles were then conjugated to cysteine-tagged RGD (target) or RAD (control) peptides and washed again to remove residual peptide. RGD conjugation was confirmed by HPLC and MALDI-TOF. Ultrasound imaging was performed using a small-animal ultrasound scanner with a 30-MHz transducer.
Mice were anesthetized and placed on a physiological monitoring platform, and their tail veins were catheterized for injections using a 27-gauge, ½-inch butterfly catheter. The transducer was positioned at the tumor midsection, and 2-D ultrasound images were acquired using a field of view of 17×17 mm. A 50-μL bolus (2.5×10^7 microbubbles) followed by a 15-μL saline flush were injected while imaging at the maximum frame rate for respiratory gating (˜11 frames/second) and 100% power. Maximum intensity persistence (MIP) images were acquired using non-targeted RAD-microbubbles. Contrast enhancement was detected using background subtraction from reference videos acquired before the microbubble injection. […] Relative microbubble perfusion (rmp) was defined as the maximum signal enhancement and determined by regression of a monoexponential function to the time-intensity curve during microbubble uptake. […]

SK-NEP-1 tumors [6] = assay: Fluorescein-labeled lectin perfusion analysis of tumor vasculature, SK-NEP-1 tumors
Method: as §2
After binarization of the images, microvessel density (MVD) was estimated by the total number of white pixels per field. The results shown in FIGS. 10A-10B are as the mean pixel count per image +SD.
Computer-assisted image analysis was used to examine changes in specific vessel features. […] To more closely estimate numbers of vessels, total length can be calculated by skeletonizing images and then scoring these by computer. […] New vascular branches can form a dynamic and relatively VEGF-dependent element in angiogenic networks.

With bevacizumab [BV] as the substance, how does the “changes in tumor size” value (SK-NEP-1 xenografts; SK-NEP tumor-bearing mice, 0.2 cc BV (2.5 mg/mL) on days 0 and 3) read?
Its value is “no significant changes”.

And the “change in tumor 2-D cross-sectional area (ultrasound)” value (SK-NEP-1 xenografts; SK-NEP-1 mice, BV 0.5 mg on days 0 and 3, over the 5 day period)?
The value was −5%.

And the “tumor growth in comparison to control” value (SK-NEP-1 xenografts; SK-NEP-1 xenografts, days 3 and 5)?
The value was “significantly arrested tumor growth”.

What about the “difference in rtma decay rates, BV-treated vs control” value (NGP tumors [1]) of the same substance?
The value was “no difference was observed”.

And the “reduction of the difference in image intensity (before/after destruction pulse)” value (SK-NEP-1 tumors [2]; BV-responsive tumors, RGD microbubbles, after 3 days following treatment)?
The value was greater than 95%.

And the “decrease in mean rtma” value (SK-NEP-1 tumors [2]; BV-treated SK-NEP-1, by day 5)?
The value was 99±5%.

What about the “difference in rtma decay rates, BV-treated vs control” value (SK-NEP-1 tumors [2]; SK-NEP-1, exponential decay model, days 0-5) of the same substance?
Its value is “statistically different”.

What about the “αvβ3 integrin binding of RGD-bearing microbubbles in the tumor region” value (SK-NEP-1 tumors [2]; treated SK-NEP mice, three days following BV administration) of the same substance?
The value was “significant drop”.

And the “microvessel density (MVD) compared to day 0 controls” value (NGP tumors [3])?
The value was “did not change”.

What about the tumor growth (NGP xenografts) of the same substance?
The tumor growth was “unaffected”.

And the “slopes of the linear regression of rmp, BV-treated vs control” value (SK-NEP-1 tumors [4])?
The value was “statistically different”.

What about the “increase in mean rmp” value (NGP tumors [5]; by day 1) of the same substance?
The value was 38±21%.

What about the “increase in mean rmp” value (NGP tumors [5]; by day 3) of the same substance?
The value was 57±48%.

And the “increase in mean rmp” value (NGP tumors [5]; by day 5)?
The value was 105±41%.

And the “slopes of the linear regression of rmp, BV-treated vs control” value (NGP tumors [5]; NGP cohorts, days 0 to 5, linear mixed-effects model)?
Its value is “no difference”.

And the “decrease in microvessel density (MVD) compared to day 0 controls” value (SK-NEP-1 tumors [6]; BV-treated SK-NEP-1 tumors, day 1)?
Its value is 66%.

What about the total vessel length (SK-NEP-1 tumors [6]; SK-NEP-1, days 1, 3, 5) of the same substance?
Its total vessel length is “significantly decreased”.

What about the “total vascular branch number” value (SK-NEP-1 tumors [6]; SK-NEP-1, days 3 and 5) of the same substance?
The value was “significantly decreased”.

Source: patent US20130251633A1, “SYSTEMS, METHODS, AND DEVICES FOR ULTRASONIC ASSESSMENT OF CANCER AND RESPONSE TO THERAPY” (The Trustees of Columbia University in the City of New York, priority 2010, published 2013)
